From US11660293B2, “Substituted 2-azabicyclo[3.1.1]heptane and 2-azabicyclo[3.2.1]octane derivatives as orexin receptor antagonists” (Chronos Therapeutics Limited, priority 2017, dated 2023) come the findings set out here.

In experiment [1] the target is human Orexin type 1 receptors (Homo sapiens (Human), UniProt O43613). Briefly: Scintillation Proximity Assay (SPA) binding assay, [3H]SB-674042 displacement, CHO-hOX1 membranes. In general terms: SPA uses beads or plates that emit light when radiolabelled molecules are held near them.
Chain of human Orexin type 1 receptors (O43613 whole entry): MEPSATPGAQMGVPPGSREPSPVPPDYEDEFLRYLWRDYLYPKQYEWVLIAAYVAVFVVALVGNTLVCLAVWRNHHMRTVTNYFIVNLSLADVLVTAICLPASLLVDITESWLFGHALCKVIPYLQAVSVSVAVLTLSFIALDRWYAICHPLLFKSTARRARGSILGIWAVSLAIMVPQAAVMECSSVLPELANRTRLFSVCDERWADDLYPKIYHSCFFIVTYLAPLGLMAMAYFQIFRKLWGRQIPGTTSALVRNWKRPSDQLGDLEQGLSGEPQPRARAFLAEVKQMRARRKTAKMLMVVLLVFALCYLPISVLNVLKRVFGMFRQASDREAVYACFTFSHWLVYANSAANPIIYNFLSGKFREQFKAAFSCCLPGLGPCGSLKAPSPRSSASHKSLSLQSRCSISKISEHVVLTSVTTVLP
The target of experiment [2] is human Orexin type 2 receptors (Homo sapiens (Human), UniProt O43614). Briefly: Scintillation Proximity Assay (SPA) binding assay, [3H]EMPA displacement, HEK-hOX2 membranes.
Chain of human Orexin type 2 receptors (O43614 whole entry): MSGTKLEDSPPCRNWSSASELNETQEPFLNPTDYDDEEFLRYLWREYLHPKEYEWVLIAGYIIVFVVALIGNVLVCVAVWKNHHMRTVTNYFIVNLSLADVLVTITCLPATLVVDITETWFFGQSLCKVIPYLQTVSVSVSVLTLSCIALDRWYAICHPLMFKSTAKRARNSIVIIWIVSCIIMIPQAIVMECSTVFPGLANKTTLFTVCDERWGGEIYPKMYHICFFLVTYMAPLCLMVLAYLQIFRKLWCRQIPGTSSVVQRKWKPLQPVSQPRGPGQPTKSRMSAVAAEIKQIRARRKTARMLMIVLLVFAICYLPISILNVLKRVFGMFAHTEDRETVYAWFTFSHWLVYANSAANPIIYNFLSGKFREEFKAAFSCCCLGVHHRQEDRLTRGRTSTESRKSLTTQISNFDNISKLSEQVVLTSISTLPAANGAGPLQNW

For the compound `Cc1ccc(-n2nccn2)c(C(=O)N2C3CC(C3)[C@@H](C)C2CNc2nc3ccc(F)cc3o2)n1` (mixture of isomers) [Example 218, cis-6-fluoro-N-({4-methyl-2-[6-methyl-3-(2H-1,2,3-triazol-2-yl)pyridine-2-carbonyl]-2-azabicyclo[3.1.1]heptan-3-yl}methyl)-1,3-benzoxazol-2-amine], in experiment [1] (Table 2, [3H]SB-674042 2 nM), the “OX1 pKi (SPA binding)” value is given as 8.33. Also, the “OX2 pKi (SPA binding)” value in experiment [2] (Table 2, [3H]EMPA 2 nM) came out at 5.47.
Turning to `Cc1ccc(-c2ncccn2)c(C(=O)N2C3CC(C3)[C@H](C)[C@@H]2COc2ccc(F)cc2)n1` (single isomer, unassigned) [Example 91, (3S,4R or 3R,4S)-3-(4-fluorophenoxymethyl)-4-methyl-2-[6-methyl-3-(pyrimidin-2-yl)pyridine-2-carbonyl]-2-azabicyclo[3.1.1]heptane], the Ki in experiment [1] (Table 1, [3H]SB-674042 2 nM, read-out: OX1 pKi (SPA binding) (converted)) is 3.47 nM; in experiment [2] (Table 1, [3H]EMPA 2 nM, read-out: OX2 pKi (SPA binding) (converted)), 35.5 nM.
For the compound `Cc1nc(C(=O)N2C(COc3ccccc3F)CC3CC2C3)c(-c2ccccc2)s1` (stereo not shown) [Example 45], the “OX1 pKi (SPA binding)” value in experiment [1] (Table 1, [3H]SB-674042 2 nM) was 7.22. Also, the “OX2 pKi (SPA binding)” value in experiment [2] (Table 1, [3H]EMPA 2 nM) is reported as 7.12.
Regarding `C[C@@H]1C2CC(C2)N(C(=O)c2cc(C#N)ccc2-n2nccn2)C1CNc1cnc2cc(F)ccc2n1` (mixture of isomers) [Example 238, cis-3-(3-{[(6-fluoroquinoxalin-2-yl)amino]methyl}-4-methyl-2-azabicyclo[3.1.1]heptane-2-carobnyl)-4-(2H-1,2,3-triazol-2-yl)benzonitrile], in experiment [1] (Table 2, [3H]SB-674042 2 nM), the “OX1 pKi (SPA binding)” value is listed as 7.98. Besides, the “OX2 pKi (SPA binding)” value in experiment [2] (Table 2, [3H]EMPA 2 nM) was 6.32.
Regarding `Cc1ccc(-c2ncc(C(F)(F)F)cn2)c(C(=O)N2C3CC(C3)[C@@H](C)C2COc2ccc(F)cc2)n1` (mixture of isomers) [Example 133, cis-3-[(4-fluorophenoxy)methyl]-4-methyl-2-{6-methyl-3-[5-(trifluoromethyl)pyrimidin-2-yl]pyridine-2-carbonyl}-2-azabicyclo[3.1.1]heptane], the “OX1 pKi (SPA binding)” value in experiment [1] (Table 2, [3H]SB-674042 2 nM) worked out at 7.25. The “OX2 pKi (SPA binding)” value in experiment [2] (Table 2, [3H]EMPA 2 nM) was 6.79.
`Cc1nc(C(=O)N2C3CC(C3)[C@H](C)C2COc2ccc(F)cc2)c(-c2ncccn2)s1` (mixture of isomers) [Example 113, trans-3-[(4-fluorophenoxy)methyl]-4-methyl-2-[2-methyl-5-(pyrimidin-2-yl)-1,3-thiazole-4-carbonyl]-2-azabicyclo[3.1.1]heptane]: the “OX1 pKi (SPA binding)” value in experiment [1] (Table 2, [3H]SB-674042 2 nM) came out at 8.21. The “OX2 pKi (SPA binding)” value in experiment [2] (Table 2, [3H]EMPA 2 nM) came to 5.72.
As for `Cc1ccc(-n2nccn2)c(C(=O)N2C3CC(C3)[C@@H](C)C2CNc2nc3ccccc3s2)n1` (single isomer, unassigned) [Example 180, N-{[(3R,4S) or (3S,4R)-4-methyl-2-[6-methyl-3-(2H-1,2,3-triazol-2-yl)pyridine-2-carbonyl]-2-azabicyclo[3.1.1]heptan-3-yl]methyl}-1,3-benzothiazol-2-amine], the “OX1 pKi (SPA binding)” value in experiment [1] (Table 2, [3H]SB-674042 2 nM) was 8.78. For the same compound, the “OX2 pKi (SPA binding)” value in experiment [2] (Table 2, [3H]EMPA 2 nM) stood at 5.58.
On to `Cc1ccc(-c2ncc(F)cn2)c(C(=O)N2C3CC(C3)[C@@H](C)C2COc2ccc(F)cc2)n1` (mixture of isomers) [Example 134, cis-3-[(4-fluorophenoxy)methyl]-2-[3-(5-fluropyrimidin-2-yl)-6-methylpyridine-2-carbonyl]-4-methyl-2-azabicyclo[3.1.1]heptane], for which, in experiment [1] (Table 2, [3H]SB-674042 2 nM), the “OX1 pKi (SPA binding)” value was determined as 7.85. Moreover, in experiment [2] (Table 2, [3H]EMPA 2 nM), the “OX2 pKi (SPA binding)” value worked out at 7.03.
On to `Cc1ccc(-n2nccn2)c(C(=O)N2C3CC(C3)[C@@H](C)C2CNc2cnc(C(F)(F)F)cn2)c1` (stereo partly shown) [Example 254], for which the “OX1 pKi (SPA binding)” value in experiment [1] (Table 2, [3H]SB-674042 2 nM) was found to be 8.37. For the same compound, the “OX2 pKi (SPA binding)” value in experiment [2] (Table 2, [3H]EMPA 2 nM) worked out at 5.12.
In the case of `Cc1ccc(-n2nccn2)c(C(=O)N2C3CC(C3)[C@H](C)C2COc2ccc(F)cc2)c1` (stereo partly drawn) [Example 109, trans-3-[(4-fluorophenoxy)methyl]-4-methyl-2-[5-methyl-2-(2H-1,2,3-triazol-2-yl)benzoyl]-2-azabicyclo[3.1.1]heptane], in experiment [1] (Table 1, [3H]SB-674042 2 nM), the “OX1 pKi (SPA binding)” value amounted to 7.51. For the same compound, the “OX2 pKi (SPA binding)” value in experiment [2] (Table 1, [3H]EMPA 2 nM) turned out to be 5.89.
`Cc1cccc(-c2sc(C)nc2C(=O)N2C3CC(C3)[C@@H](C)C2COc2ccc(F)cc2)n1` (mixture of isomers) [Example 137, cis-3-[(4-fluorophenoxy)methyl]-4-methyl-2-[2-methyl-5-(6-methylpyridin-2-yl)-1,3-thiazole-4-carbonyl]-2-azabicyclo[3.1.1]heptane]: in experiment [1] (Table 2, [3H]SB-674042 2 nM), the “OX1 pKi (SPA binding)” value worked out at 7.97. The “OX2 pKi (SPA binding)” value in experiment [2] (Table 2, [3H]EMPA 2 nM) is listed as 6.34.
Regarding `Cc1nc(C(=O)N2C3CC(C3)[C@H](C)C2COc2ccc(F)cc2)c(-c2ccccn2)s1` (single isomer, unassigned) [Example 124, (3S,4S) or (3R,4R)-3-[(4-fluorophenoxy)methyl]-4-methyl-2-[2-methyl-5-(pyridin-2-yl)-1,3-thiazole-4-carbonyl]-2-azabicyclo[3.1.1]heptane], the “OX1 pKi (SPA binding)” value in experiment [1] (Table 2, [3H]SB-674042 2 nM) is reported as 8.43. Moreover, the “OX2 pKi (SPA binding)” value in experiment [2] (Table 2, [3H]EMPA 2 nM) is listed as 6.3.
Taken in the same sequence, the figures for `Cc1ccc(-n2nccn2)c(C(=O)N2C3CC(C3)[C@@H](C)C2COc2ccc(C(F)(F)F)cn2)n1` (mixture of isomers) [Example 129, cis-4-methyl-2-[6-methyl-3-(2H-1,2,3-triazol-2-yl)pyridine-2-carbonyl]-3-({[5-(trifluoromethyl)pyridin-2-yl]oxy}methyl)-2-azabicyclo[3.1.1]heptane] were 6.81 and 5.14.
Taken in the same sequence, the figures for `Cc1nc(C(=O)N2C3CC(C3)[C@@H](C)C2CNc2nc3ccc(F)cc3s2)c(-c2ncccn2)s1` (mixture of isomers) [Example 162, cis-6-fluoro-N-({4-methyl-2-[2-methyl-5-(pyrimidin-2-yl)-1,3-thiazole-4-carbonyl]-2-azabicyclo[3.1.1]heptan-3-yl]methyl)-1,3-benzothiazol-2-amine] were 8.83 and 5.59.
With `Cc1ccc(-n2nccn2)c(C(=O)N2C3CC(C3)[C@@H](C)C2CNc2ccc(F)c(C)n2)n1` (mixture of isomers) [Example 196, cis-5-fluoro-6-methyl-N-({4-methyl-2-[6-methyl-3-(2H-1,2,3-triazol-2-yl)pyridine-2-carbonyl]-2-azabicyclo[3.1.1]heptan-3-yl}methyl)pyridin-2-amine], in experiment [1] (Table 2, [3H]SB-674042 2 nM), the “OX1 pKi (SPA binding)” value is listed as 7.65. Besides, the “OX2 pKi (SPA binding)” value in experiment [2] (Table 2, [3H]EMPA 2 nM) was 5.74.
As for `C[C@@H]1C2CC(C2)N(C(=O)c2cc(Cl)ccc2-n2nccn2)C1CNc1nc2ccc(F)cc2s1` (mixture of isomers) [Example 171, cis-N-({2-[5-chloro-2-(2H-1,2,3-triazol-2-yl)benzoyl]-4-methyl-2-azabicyclo[3.1.1]heptan-3-yl}methyl)-6-fluoro-1,3-benzothiazol-2-amine], the “OX1 pKi (SPA binding)” value in experiment [1] (Table 2, [3H]SB-674042 2 nM) was found to be 8.9. Moreover, the “OX2 pKi (SPA binding)” value in experiment [2] (Table 2, [3H]EMPA 2 nM) came to 6.32.
On to `Cc1ccc(-n2nccn2)c(C(=O)N2C3CC(C3)[C@@H](C)C2CNc2cnc3ccccc3n2)n1` (single isomer, unassigned) [Example 160, N-{[(3R,4S) or (3S,4R)-4-methyl-2-[6-methyl-3-(2H-1,2,3-triazol-2-yl)pyridine-2-carbonyl]-2-azabicyclo[3.1.1]heptan-3-yl]methyl}quinoxalin-2-amine], for which, in experiment [1] (Table 2, [3H]SB-674042 2 nM), the “OX1 pKi (SPA binding)” value is recorded as 8.68. Further, the “OX2 pKi (SPA binding)” value in experiment [2] (Table 2, [3H]EMPA 2 nM) is listed as 5.98.
With `Cc1nc(C(=O)N2C3CC(C3)[C@@H](C)C2COc2ccc(F)cc2)c(-c2ncccn2)s1` (stereo partly drawn) [Example 94, cis-3-[(4-fluorophenoxy)methyl]-4-methyl-2-[2-methyl-5-(pyrimidin-2-yl)-1,3-thiazole-4-carbonyl]-2-azabicyclo[3.1.1]heptane], the “OX1 pKi (SPA binding)” value in experiment [1] (Table 1, [3H]SB-674042 2 nM) is 8.04. Also, in experiment [2] (Table 1, [3H]EMPA 2 nM), the “OX2 pKi (SPA binding)” value was found to be 6.35.
For the compound `Cc1cn(-c2ccc(C)nc2C(=O)N2C3CC(C3)[C@@H](C)C2COc2ccc(F)cc2)nn1` (mixture of isomers) [Example 146, cis-3-[(4-fluorophenoxy)methyl]-4-methyl-2-[6-methyl-3-(4-methyl-1H-1,2,3-triazol-1-yl)pyridine-2-carbonyl]-2-azabicyclo[3.1.1]heptane], in experiment [1] (Table 2, [3H]SB-674042 2 nM), the “OX1 pKi (SPA binding)” value stood at 6.88. Moreover, the “OX2 pKi (SPA binding)” value in experiment [2] (Table 2, [3H]EMPA 2 nM) is reported as 5.53.
In the case of `Cc1nc(C(=O)N2C(COc3cccc(F)c3)CC3CC2C3)c(-c2ccccc2)s1` (stereo not shown) [Example 44], the “OX1 pKi (SPA binding)” value in experiment [1] (Table 1, [3H]SB-674042 2 nM) is 7.15. For the same compound, in experiment [2] (Table 1, [3H]EMPA 2 nM), the “OX2 pKi (SPA binding)” value came to 6.38.
As for `Cc1nc(C(=O)N2C3CC(C3)[C@@H](C)C2COc2ccc(F)cc2)c(-c2cncc(Cl)c2)s1` (mixture of isomers) [Example 139, cis-2-[5-(5-chloropyridin-3-yl)-2-methyl-1,3-thiazole-4-carbonyl]-3-[(4-fluorophenoxy)methyl]-4-methyl-2-azabicyclo[3.1.1]heptane], in experiment [1] (Table 2, [3H]SB-674042 2 nM), the “OX1 pKi (SPA binding)” value stood at 7.85. Besides, in experiment [2] (Table 2, [3H]EMPA 2 nM), the “OX2 pKi (SPA binding)” value worked out at 6.18.
For `CCOc1ccc(C)nc1C(=O)N1C2CC(C2)[C@@H](C)C1CNc1nc2ccc(F)cc2s1` (mixture of isomers) [Example 174, cis-N-{[2-(3-ethoxy-6-methylpyridine-2-carbonyl)-4-methyl-2-azabicyclo[3.1.1]heptan-3-yl]methyl}-6-fluoro-1,3-benzothiazol-2-amine], the “OX1 pKi (SPA binding)” value in experiment [1] (Table 2, [3H]SB-674042 2 nM) was determined as 8.82. Further, the “OX2 pKi (SPA binding)” value in experiment [2] (Table 2, [3H]EMPA 2 nM) is 7.06.
`Cc1ccc(-c2ncccn2)c(C(=O)N2C3CC(C3)[C@@H](C)C2CNc2cnc(C(F)(F)F)cn2)n1` (mixture of isomers) [Example 248, cis-N-({4-methyl-2-[6-methyl-3-(pyrimidin-2-yl)pyridine-2-carbonyl]-2-azabicyclo[3.1.1]heptan-3-yl}methyl)-5-(trifluoromethyl)pyrazin-2-amine]: the “OX1 pKi (SPA binding)” value in experiment [1] (Table 2, [3H]SB-674042 2 nM) is 7.76. In addition, the “OX2 pKi (SPA binding)” value in experiment [2] (Table 2, [3H]EMPA 2 nM) worked out at 4.58.
